For 5 compounds, Activity and inhibition results are on record in ChEMBL document CHEMBL5038639, “Designed Peptide Inhibitors of STEP Phosphatase-GluA2 AMPA Receptor Interaction Enhance the Cognitive Performance in Rats” (J Med Chem, 2022).

Test [1] deals with Rattus norvegicus. In words: Cognitive enhancing effect in Wistar rat model of scopolamine-induced working memory impairment assessed as reduction in number of working memory errors at 5 mg/kg by Radial arm maze task. It counts as functional, organism-based.
The test system of test [2] is Rattus norvegicus. Description: Cognitive enhancing effect in Wistar rat model of scopolamine-induced short term memory impairment assessed as increase in spontaneous alteration at 5 mg/kg measured by Y-maze method. It counts as functional, organism-based.
Test [3] is filed under the species Rattus norvegicus. In words: Cognitive enhancing effect in Wistar rat model of scopolamine-induced reference memory impairment assessed as reduction in number of reference memory error at 15 uM by Radial arm maze task. It counts as functional, organism-based.
The species entered for a further test is Homo sapiens. In words: Inhibition of GluA2-STEP32 C/S mutant (unknown origin) protein-protein interaction at 0.1 to 1 mM by Western blotting based pulldown assay. The settings on record: dose 0.1-1 mM.
For test [4], the target named is T1, Tyrosine-protein phosphatase non-receptor type 1 (Homo sapiens) (UniProt P18031).
T1 sequence (whole entry): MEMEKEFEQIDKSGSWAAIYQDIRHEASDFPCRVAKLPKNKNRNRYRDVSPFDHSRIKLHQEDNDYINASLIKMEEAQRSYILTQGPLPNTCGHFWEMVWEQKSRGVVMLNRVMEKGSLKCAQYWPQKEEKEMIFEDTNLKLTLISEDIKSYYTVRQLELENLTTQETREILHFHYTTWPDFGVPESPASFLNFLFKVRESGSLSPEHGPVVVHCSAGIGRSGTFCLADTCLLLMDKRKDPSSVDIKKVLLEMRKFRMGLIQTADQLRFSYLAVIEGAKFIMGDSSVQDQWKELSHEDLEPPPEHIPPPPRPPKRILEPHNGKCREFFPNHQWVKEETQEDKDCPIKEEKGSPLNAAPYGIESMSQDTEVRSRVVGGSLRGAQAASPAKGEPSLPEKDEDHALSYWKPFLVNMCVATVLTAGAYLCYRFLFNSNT
Description: Inhibition of […] (unknown origin) at 1 mM using pNPP as substrate.

Test [5] is filed under the species Rattus norvegicus. Description: Antidepressant activity in Wistar rat model of scopolamine-induced depressive like behavior assessed as decrease in immobility time at 15 uM measured after 24 hrs by forced swimming test. It counts as functional, organism-based.
For test [6], the species on record is Rattus norvegicus. In words: Antidepressant activity in Wistar rat model of scopolamine-induced depressive like behavior assessed as increased swimming time at 15 uM measured after 24 hrs by forced swimming test. It counts as functional, organism-based.
The species named for test [7] is Rattus norvegicus. In words: Anxiolytic activity in scopolamine-induced Wistar rat assessed as increase in time spent in open arm measured at 15 uM for 5 min by elevated plus maze test. It counts as functional, organism-based.
The subject of test [8] is HEK293. Description: Inhibition of GluA2-STEP3 (unknown origin) protein-protein interaction expressed in HEK293 cells assessed as reduction in GluA2 dephosphorylation at pY876 residue at 0.1 mM incubated for 30 min by western blotting analysis. It counts as cell-based. The settings on record: Homo sapiens.
The species named for test [9] is Rattus norvegicus. Description: Anxiolytic activity in scopolamine-induced Wistar rat assessed as increase in number of entries in open arm measured at 15 uM for 5 min by elevated plus maze test. It counts as functional, organism-based.
The species named for test [10] is Rattus norvegicus. In words: Cognitive enhancing effect in Wistar rat model of scopolamine-induced working memory impairment assessed as reduction in number of working memory errors at 15 uM by Radial arm maze task. It counts as functional, organism-based.
The species named for test [11] is Rattus norvegicus. Description: Cognitive enhancing effect in Wistar rat model of scopolamine-induced short term memory impairment assessed as increase in spontaneous alteration at 15 uM measured by Y-maze method. It counts as functional, organism-based.
Test [12] deals with T2, Tyrosine-protein phosphatase non-receptor type 2 (Homo sapiens) (UniProt P17706).
T2 sequence (whole entry): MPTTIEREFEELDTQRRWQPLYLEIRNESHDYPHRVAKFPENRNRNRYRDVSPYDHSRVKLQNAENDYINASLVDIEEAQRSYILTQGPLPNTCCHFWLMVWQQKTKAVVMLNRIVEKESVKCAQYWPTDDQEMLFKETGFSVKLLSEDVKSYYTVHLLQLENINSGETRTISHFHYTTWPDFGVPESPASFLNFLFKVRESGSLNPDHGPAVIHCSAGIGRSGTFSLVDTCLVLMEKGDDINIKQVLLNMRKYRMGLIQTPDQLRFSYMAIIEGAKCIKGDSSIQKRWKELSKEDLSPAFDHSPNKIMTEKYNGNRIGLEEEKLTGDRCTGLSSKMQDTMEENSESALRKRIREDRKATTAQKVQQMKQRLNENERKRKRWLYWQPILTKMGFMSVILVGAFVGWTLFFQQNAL
In words: Inhibition of TC-PTP (unknown origin) at 1 mM using pNPP as substrate.

For test [13], the system named is HEK293. Description: Inhibition of GluA2-STEP3 (unknown origin) protein-protein interaction expressed in HEK293 cells assessed as reduction in GluA2 dephosphorylation at pY876 residue at 1 mM incubated for 30 min by western blotting analysis. It counts as cell-based. The settings on record: Homo sapiens.
In test [14] the test system is Hippocampus. Description: Effect on hippocampal population spike in Wistar rat assessed as increase in amplitude at 15 uM measured after 3 hrs. It counts as functional, tissue-based.
Test [15] deals with Hippocampus. In words: Effect on hippocampal population spike in Wistar rat assessed as increase in spike area and slope at 15 uM measured after 2 hrs. It counts as functional, tissue-based.
Test [16] deals with Hippocampus. Description: Effect on hippocampal population spike in Wistar rat assessed as decrease in population spike area at 1.5 mM measured upto 3 hrs. The settings on record: time hrs <=3. It counts as functional, tissue-based.
For test [17], the system named is Hippocampus. In words: Effect on hippocampal population spike in Wistar rat assessed as increase in spike area and slope at 15 uM measured at 1 hr. It counts as functional, tissue-based.

Calls of active or inactive are those of the source. The rule behind the calls is not given here. Square brackets hold non-standard residues; d marks the D form. Peptide text beside a SMILES is read from it. pY = N[C@@H](Cc1ccc(OP(=O)(O)O)cc1)C(=O)O

`COc1cc2c(cc1OC)C(=O)C(CC1CCN(Cc3ccccc3)CC1)C2` (centres undefined): the result with Rattus norvegicus [1] and in the test on Rattus norvegicus [2] was Active.

Take `CC(=O)N[C@@H](Cc1ccc(O)cc1)C(=O)NCC(=O)N[C@@H](CCCNC(=N)N)C(=O)N[C@@H](CCCCN)C(=O)N[C@@H](CCCCN)C(=O)N[C@@H](CCCNC(=N)N)C(=O)N[C@@H](CCCNC(=N)N)C(=O)N[C@@H](CCC(N)=O)C(=O)N[C@@H](CCCNC(=N)N)C(=O)N[C@@H](CCCNC(=N)N)C(=O)N[C@@H](CCCNC(=N)N)C(=O)N[C@@H](C)C(=O)N[C@H](C(=O)N[C@@H](Cc1ccc(O)cc1)C(=O)N[C@@H](CCCCN)C(=O)N[C@@H](CCC(=O)O)C(=O)NCC(=O)N[C@@H](Cc1ccc(O)cc1)C(=O)N[C@@H](CC(N)=O)C(=O)N[C@H](C(=O)N[C@@H](Cc1ccc(OP(=O)(O)O)cc1)C(=O)NCC(N)=O)C(C)C)[C@@H](C)O` (Ac-YGRKKRRQRRRATYKEGYNV[pY]G-NH2): the outcome in the test listed under Rattus norvegicus [3], in the test listed under Rattus norvegicus [5], in the test listed under Rattus norvegicus [6], in the test filed under Rattus norvegicus [7], in the test listed under Rattus norvegicus [9] and in the test listed under Rattus norvegicus [10] was Active. The outcome in the test listed under Rattus norvegicus [11] was Active. In addition, the inhibition entry (in the test listed under Homo sapiens; in [4]; in the test on HEK293 [8]; in test [12]) was “Active” each time.

Consider `CC(=O)N[C@@H](Cc1ccc(O)cc1)C(=O)NCC(=O)N[C@@H](CCCNC(=N)N)C(=O)N[C@@H](CCCCN)C(=O)N[C@@H](CCCCN)C(=O)N[C@@H](CCCNC(=N)N)C(=O)N[C@@H](CCCNC(=N)N)C(=O)N[C@@H](CCC(N)=O)C(=O)N[C@@H](CCCNC(=N)N)C(=O)N[C@@H](CCCNC(=N)N)C(=O)N[C@@H](CCCNC(=N)N)C(=O)N[C@@H](CCC(=O)O)C(=O)NCC(=O)N[C@@H](Cc1ccc(O)cc1)C(=O)N[C@@H](CC(N)=O)C(=O)N[C@H](C(=O)N[C@@H](Cc1ccc(OP(=O)(O)O)cc1)C(N)=O)C(C)C` (Ac-YGRKKRRQRRREGYNV[pY]-NH2), for which the outcome in the test filed under Rattus norvegicus [3], in the test listed under Rattus norvegicus [5], in the test listed under Rattus norvegicus [6], in the test listed under Rattus norvegicus [7], in the test listed under Rattus norvegicus [9] and in the test filed under Rattus norvegicus [10] was Active. Also, the result in the test filed under Rattus norvegicus [11] was Active. Further, the inhibition entry (in the test listed under Homo sapiens; in test [4]; in the test with HEK293 [8]; in [12]) was “Active” in each case.

Take `CC(=O)N[C@@H](Cc1ccc(O)cc1)C(=O)NCC(=O)N[C@@H](CCCNC(=N)N)C(=O)N[C@@H](CCCCN)C(=O)N[C@@H](CCCCN)C(=O)N[C@@H](CCCNC(=N)N)C(=O)N[C@@H](CCCNC(=N)N)C(=O)N[C@@H](CCC(N)=O)C(=O)N[C@@H](CCCNC(=N)N)C(=O)N[C@@H](CCCNC(=N)N)C(=O)N[C@@H](CCCNC(=N)N)C(=O)N[C@@H](CCC(=O)O)C(=O)NCC(=O)N[C@@H](Cc1ccc(O)cc1)C(=O)N[C@@H](CC(N)=O)C(=O)N[C@H](C(=O)N[C@@H](Cc1ccc(OP(=O)(O)O)cc1)C(=O)N[C@@H](CCC(=O)O)C(N)=O)C(C)C` (Ac-YGRKKRRQRRREGYNV[pY]E-NH2): the result in the test filed under Rattus norvegicus [3], in the test filed under Rattus norvegicus [5], in the test listed under Rattus norvegicus [6], with Hippocampus [14], in the test listed under Rattus norvegicus [7] and in the test listed under Rattus norvegicus [9] was Active. Besides, the result in the test listed under Rattus norvegicus [10], in the test on Hippocampus [16], in the test listed under Rattus norvegicus [11] and with Hippocampus [17] was Active. For the same compound, the inhibition result (with HEK293 [13]; in the test filed under Homo sapiens; in [4]; in the test on HEK293 [8]; in test [12]) was “Active” throughout. The result in the test with Hippocampus [15] was inactive.

Turning to Ac-YGRKKRRQRRRATYKEGYNVYG-NH2, the outcome in the test filed under Rattus norvegicus [3], in the test listed under Rattus norvegicus [5], in the test listed under Rattus norvegicus [6], in the test filed under Rattus norvegicus [7], in the test listed under Rattus norvegicus [9] and in the test filed under Rattus norvegicus [10] was Active. Moreover, the outcome in the test filed under Rattus norvegicus [11] was Active. Also, the inhibition result in test [4] and in test [12] was “Active” each time.
